Columns and labels:
[1] = test system: cocklebur; test: Test B pre-/postemergence herbicide test; format: in vivo, Xanthium strumarium; details: for Cocklebur plant response rating: postemergence
Outline: (§1)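 Test chemicals in a non-phytotoxic solvent mixture with surfactant were applied preemergence to seeded species and postemergence to plants 2-18 cm tall (1- to 4-leaf stage); rice and barnyardgrass were also tested in a flooded paddy at the 2-leaf stage. Visual rating versus controls after 13-15 days in greenhouse, scale 0 (no effect) to 100 (complete control).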

[2] = test system: velvetleaf; test: Test B pre-/postemergence herbicide test; format: in vivo, Abutilon theophrasti; details: for Velvetleaf plant response rating: postemergence
Outline: (§2)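 Greenhouse pot assay with simultaneous preemergence (treated seed) and postemergence (2–18 cm seedlings) applications of surfactant-containing, non-phytotoxic solvent formulations. Response scored visually 13–15 days later on a 0–100 scale, 100 meaning complete control.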

[3] = test system: blackgrass; test: Test B postemergence herbicide test; format: in vivo, Alopecurus myosuroides; details: postemergence
Outline: (§3)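 Paddy species grown to the 2-leaf stage under flooding; blackgrass sprayed postemergence at 2–18 cm (1- to 4-leaf stage). Plants kept in a greenhouse for 13 to 15 days, then visually rated against controls on 0 (no effect) to 100 (complete control).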

[4] = test system: Surinam grass; test: Test B pre-/postemergence herbicide test; format: in vivo, Urochloa decumbens; details: for Surinam Grass plant response rating: postemergence
Outline: as §2

[5] = test system: morningglory; test: Test B pre-/postemergence herbicide test; format: in vivo, Ipomoea coccinea; details: for Morningglory plant response rating: postemergence
Outline: as §1

[6] = test system: large crabgrass; test: Test B pre-/postemergence herbicide test; format: in vivo, Digitaria sanguinalis; details: for Crabgrass, Large plant response rating: postemergence
Outline: as §2

[7] = test system: rice; test: Test B flooded paddy test; format: in vivo, Oryza sativa; details: 1000 g ai/ha, scale 0 to 100 (0 no effect, 100 complete control)
Outline: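 Greenhouse test; postemergence application to plants at 1–4 leaves (2–18 cm); paddy species at 2 leaves; evaluated visually vs controls at 13–15 days; scale 0–100 (100 = complete control).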

[8] = test system: giant foxtail; test: Test B pre-/postemergence herbicide test; format: in vivo, Setaria faberi; details: for Foxtail, Giant plant response rating: postemergence
Outline: as §2

[9] = test system: barnyardgrass; test: Test B flooded paddy test; format: in vivo, Echinochloa crus-galli; details: 1000 g ai/ha, scale 0 to 100 (0 no effect, 100 complete control)
Outline: as §3

[10] = test system: wild oat; test: Test B postemergence herbicide test; format: in vivo, Avena fatua; details: postemergence
Outline: (§4)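 Each value is a visual 0–100 response rating taken against controls 13 to 15 days after treatment in the greenhouse. Plants received formulated chemical postemergence at the 1- to 4-leaf stage or, in flooded paddy, at the 2-leaf stage.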

[11] = test system: small flower umbrella sedge; test: Test B flooded paddy test; format: in vivo, Cyperus difformis; details: 1000 g ai/ha, scale 0 to 100 (0 no effect, 100 complete control)
Outline: as §3

[12] = test system: lambsquarters; test: Test B pre-/postemergence herbicide test; format: in vivo, Chenopodium album; details: for Lambsquarters plant response rating: postemergence
Outline: as §2

[13] = test system: pigweed; test: Test B pre-/postemergence herbicide test; format: in vivo, Amaranthus retroflexus; details: for Pigweed plant response rating: postemergence
Outline: as §2

[14] = test system: corn; test: Test B pre-/postemergence herbicide test; format: in vivo, Zea mays; details: for Corn plant response rating: postemergence
Outline: as §2

[15] = test system: wheat; test: Test B postemergence herbicide test; format: in vivo, Triticum aestivum; design: key to Wheat plant response rating: 0 = no effect, 100 = complete control; details: postemergence
Outline: as §4

[16] = 125 g ai/ha, 0 is no effect, 100 is complete control, preemergence
[17] = 125 g ai/ha, visual rating, scale 0 (no effect) to 100 (complete control)
[18] = 500 g ai/ha, visual rating, 0 = no effect, 100 = complete control, preemergence
[19] = 500 g ai/ha, scale 0 to 100, 0 is no effect, 100 is complete control

CCn1nc(C(C)(C)C)cc1C(=O)Nc1cccc(OC(F)(F)C(F)F)c1 [Compound 333]
Plant response rating (0 to 100 scale), Cocklebur [1, 16]: 0
Cocklebur plant response rating [1, 17]: 20
Plant response rating, Cocklebur [1, 18]: 0
Cocklebur plant response rating [1, 19]: 80
Plant response rating (0 to 100 scale), Velvetleaf [2, 16]: 10
Velvetleaf plant response rating [2, 17]: 50
Velvetleaf plant response rating [2, 19]: 60
Blackgrass plant response rating [3, 17]: 30
Blackgrass plant response rating [3, 19]: 70
Plant response rating (0 to 100 scale), Surinam Grass [4, 16]: 10
Surinam Grass plant response rating [4, 17]: 20
Plant response rating, Surinam Grass [4, 18]: 20
Surinam Grass plant response rating [4, 19]: 30
Plant response rating (0 to 100 scale), Morningglory [5, 16]: 0
Morningglory plant response rating [5, 17]: 30
Plant response rating, Morningglory [5, 18]: 10
Morningglory plant response rating [5, 19]: 60
Plant response rating (0 to 100 scale), Crabgrass, Large [6, 16]: 40
Crabgrass, Large plant response rating [6, 17]: 40
Plant response rating, Crabgrass, Large [6, 18]: 70
Crabgrass, Large plant response rating [6, 19]: 100
Rice plant response rating [7]: 20
Plant response rating (0 to 100 scale), Foxtail, Giant [8, 16]: 10
Foxtail, Giant plant response rating [8, 17]: 30
Plant response rating, Foxtail, Giant [8, 18]: 20
Foxtail, Giant plant response rating [8, 19]: 40
Barnyardgrass plant response rating [9]: 50
Oat, Wild plant response rating [10, 17]: 40
Oat, Wild plant response rating [10, 19]: 60
Sedge, Umbrella plant response rating [11]: 80
Plant response rating (0 to 100 scale), Lambsquarters [12, 16]: 40
Lambsquarters plant response rating [12, 17]: 90
Plant response rating, Lambsquarters [12, 18]: 100
Lambsquarters plant response rating [12, 19]: 100
Plant response rating (0 to 100 scale), Pigweed [13, 16]: 90
Pigweed plant response rating [13, 17]: 90
Plant response rating, Pigweed [13, 18]: 100
Pigweed plant response rating [13, 19]: 100
Plant response rating (0 to 100 scale), Corn [14, 16]: 0
Corn plant response rating [14, 17]: 10
Plant response rating, Corn [14, 18]: 0
Corn plant response rating [14, 19]: 10
Wheat plant response rating [15, 17]: 20
Wheat plant response rating [15, 19]: 30

From patent publication US20060069132A1, “Azolecarboxamide herbicides” (priority 2004, published 2006)
